Data published in patent publication US20100099561A1, “HETEROBICYCLIC ALKYLTHIO-BRIDGED ISOXAZOLINES” (E.I. DU PONT DE NEMOURS AND COMPANY, priority 2008, published 2010).

Columns and labels:
Assay type in all cases: in vivo
[1] = system: barnyardgrass (Echinochloa crus-galli); assay: Test A preemergence, barnyardgrass; settings: 0 to 100 scale (0 no effect, 100 complete control)
Method in brief: (§1)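 Visual injury rating, 0 = no effect to 100 = complete control, made roughly ten days after treatment by comparison with untreated controls. Preemergence: directed soil spray onto freshly planted loam/sand. Postemergence: foliar application at one- to two-leaf stage, 2–10 cm height.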

[2] = system: large crabgrass (Digitaria sanguinalis); assay: Test A preemergence, large crabgrass; settings: 0 to 100 scale (0 no effect, 100 complete control)
Method in brief: as §1

[3] = system: giant foxtail (Setaria faberi); assay: Test A preemergence, giant foxtail; settings: 0 to 100 scale (0 no effect, 100 complete control)
Method in brief: as §1

[4] = system: morningglory (Ipomoea spp.); assay: Test A preemergence, morningglory; settings: 0 to 100 scale (0 no effect, 100 complete control)
Method in brief: as §1

[5] = system: pigweed (Amaranthus retroflexus); assay: Test A preemergence, pigweed; settings: 0 to 100 scale (0 no effect, 100 complete control)
Method in brief: as §1

[6] = system: velvetleaf (Abutilon theophrasti); assay: Test A preemergence, velvetleaf; settings: 0 to 100 scale (0 no effect, 100 complete control)
Method in brief: as §1

[7] = system: wheat (Triticum aestivum); assay: Test A preemergence, wheat; settings: 0 to 100 scale (0 no effect, 100 complete control)
Method in brief: as §1

corn (Zea mays) [8] = assay: Test A preemergence, corn; settings: 0 to 100 scale (0 no effect, 100 complete control)
Method in brief: as §1

[9] = system: barnyardgrass (Echinochloa crus-galli); assay: Test A postemergence, barnyardgrass; settings: 0 to 100 scale (0 no effect, 100 complete control)
Method in brief: as §1

[10] = system: large crabgrass (Digitaria sanguinalis); assay: Test A postemergence, large crabgrass; settings: 0 to 100 scale (0 no effect, 100 complete control)
Method in brief: as §1

[11] = system: giant foxtail (Setaria faberi); assay: Test A postemergence, giant foxtail; settings: 0 to 100 scale (0 no effect, 100 complete control)
Method in brief: as §1

[12] = system: morningglory (Ipomoea spp.); assay: Test A postemergence, morningglory; settings: 0 to 100 scale (0 no effect, 100 complete control)
Method in brief: as §1

[13] = system: pigweed (Amaranthus retroflexus); assay: Test A postemergence, pigweed; settings: 0 to 100 scale (0 no effect, 100 complete control)
Method in brief: as §1

[14] = system: velvetleaf (Abutilon theophrasti); assay: Test A postemergence, velvetleaf; settings: 0 to 100 scale (0 no effect, 100 complete control)
Method in brief: as §1

[15] = system: wheat (Triticum aestivum); assay: Test A postemergence, wheat; settings: 0 to 100 scale (0 no effect, 100 complete control)
Method in brief: as §1

corn (Zea mays) [16] = assay: Test A postemergence, corn; settings: 0 to 100 scale (0 no effect, 100 complete control)
Method in brief: as §1

rice (Oryza sativa) = assay: Test B flooded paddy test, rice; settings: Flood, scale 0 to 100
Method in brief: (§2)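 Paddy-water application to 2-leaf plants in pots held under 3 cm of flooding; response is a 0–100 visual control rating against controls after 13 to 15 days, and a dash marks a missing result.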

[17] = system: umbrella sedge (Cyperus difformis); assay: Test B flooded paddy test, umbrella sedge; settings: Flood, scale 0 to 100
Method in brief: as §2

[18] = system: ducksalad (Heteranthera limosa); assay: Test B flooded paddy test, ducksalad; settings: Flood, scale 0 to 100
Method in brief: as §2

[19] = system: barnyardgrass (Echinochloa crus-galli); assay: Test B flooded paddy test, barnyardgrass; settings: Flood
Method in brief: as §2

[20] = 250 g ai/ha, scale 0 to 100 (0 no effect, 100 complete control)

SMILES	Plant response rating, Barnyardgrass ([1]; 125 g ai/ha)	Plant response rating, Barnyardgrass ([1]; 500 g ai/ha)	Plant response rating, Crabgrass, Large ([2]; 125 g ai/ha)	Plant response rating, Crabgrass, Large ([2]; 500 g ai/ha)	Plant response rating, Foxtail, Giant ([3]; 125 g ai/ha)	Plant response rating, Foxtail, Giant ([3]; 500 g ai/ha)	Plant response rating, Morningglory ([4]; 125 g ai/ha)	Plant response rating, Pigweed ([5]; 125 g ai/ha)	Plant response rating, Pigweed ([5]; 500 g ai/ha)	Plant response rating, Velvetleaf ([6]; 125 g ai/ha)	Plant response rating, Velvetleaf ([6]; 500 g ai/ha)	Plant response rating, Wheat ([7]; 125 g ai/ha)	Plant response rating, Wheat ([7]; 500 g ai/ha)	Plant response rating, Corn (corn (Zea mays) [8]; 125 g ai/ha)	Plant response rating, Corn (corn (Zea mays) [8]; 500 g ai/ha)	Plant response rating, Barnyardgrass ([9]; 125 g ai/ha)	Plant response rating, Barnyardgrass ([9]; 500 g ai/ha)	Plant response rating, Crabgrass, Large ([10]; 125 g ai/ha)	Plant response rating, Crabgrass, Large ([10]; 500 g ai/ha)	Plant response rating, Foxtail, Giant ([11]; 125 g ai/ha)	other results
Cn1c(=O)c(C[S+]([O-])C2=NOC(C)(C)C2)nc2ccccc21 (centres unmarked) [Compound 24]	0	0	0	0	0	0	0	0	0	0	0	0	0	0	0	0	0	0	0	0	Plant response rating, Morningglory ([4]; 500 g ai/ha): 0; Plant response rating, Foxtail, Giant ([11]; 500 g ai/ha): 0; Plant response rating, Morningglory ([12]; 125 g ai/ha): 0; Plant response rating, Morningglory ([12]; 500 g ai/ha): 0; Plant response rating, Pigweed ([13]; 125 g ai/ha): 0; Plant response rating, Pigweed ([13]; 500 g ai/ha): 0; Plant response rating, Velvetleaf ([14]; 125 g ai/ha): 0; Plant response rating, Velvetleaf ([14]; 500 g ai/ha): 0; Plant response rating, Wheat ([15]; 125 g ai/ha): 0; Plant response rating, Wheat ([15]; 500 g ai/ha): 0; Plant response rating, Corn (corn (Zea mays) [16]; 125 g ai/ha): 0; Plant response rating, Corn (corn (Zea mays) [16]; 500 g ai/ha): 0; Plant response rating, Rice (rice (Oryza sativa); 62 g ai/ha): 30; Plant response rating, Rice (rice (Oryza sativa); 250 g ai/ha): 30; Plant response rating, Sedge, Umbrella ([17]; 62 g ai/ha): 20; Plant response rating, Sedge, Umbrella ([17]; 250 g ai/ha): 30; Plant response rating, Ducksalad ([18]; 62 g ai/ha): 0; Plant response rating, Ducksalad ([18]; 250 g ai/ha): 30; Plant response rating, Barnyardgrass ([19]; 62 g ai/ha, scale 0 to 100): 0; Plant response rating, Barnyardgrass [19, 20]: 0
Cc1cc2nc(C(F)(F)F)c(CS(=O)(=O)C3=NOC(C)(C)C3)c(=O)n2o1 [Compound 53]	30	90	30	90	30	90	0	0	0	0	0	0	0	0	0	50	90	30	80	60	Plant response rating, Foxtail, Giant ([11]; 500 g ai/ha): 80; Plant response rating, Morningglory ([12]; 125 g ai/ha): 0; Plant response rating, Morningglory ([12]; 500 g ai/ha): 10; Plant response rating, Pigweed ([13]; 125 g ai/ha): 0; Plant response rating, Pigweed ([13]; 500 g ai/ha): 0; Plant response rating, Velvetleaf ([14]; 125 g ai/ha): 0; Plant response rating, Velvetleaf ([14]; 500 g ai/ha): 0; Plant response rating, Wheat ([15]; 125 g ai/ha): 0; Plant response rating, Wheat ([15]; 500 g ai/ha): 20; Plant response rating, Corn (corn (Zea mays) [16]; 125 g ai/ha): 0; Plant response rating, Corn (corn (Zea mays) [16]; 500 g ai/ha): 0; Plant response rating, Rice (rice (Oryza sativa); 62 g ai/ha): 0; Plant response rating, Rice (rice (Oryza sativa); 250 g ai/ha): 0; Plant response rating, Sedge, Umbrella ([17]; 62 g ai/ha): 0; Plant response rating, Sedge, Umbrella ([17]; 250 g ai/ha): 0; Plant response rating, Ducksalad ([18]; 62 g ai/ha): 0; Plant response rating, Ducksalad ([18]; 250 g ai/ha): 0; Plant response rating, Barnyardgrass ([19]; 62 g ai/ha, scale 0 to 100): 0; Plant response rating, Barnyardgrass [19, 20]: 0
CC1(C)CC([S+]([O-])Cc2c(C(F)(F)F)nc3cnccn3c2=O)=NO1 (centres unmarked) [Compound 54]	0	0	0	0	0	0	0	0	0	0	0	0	0	0	0	0	0	0	20	0	Plant response rating, Morningglory ([4]; 500 g ai/ha): 0; Plant response rating, Foxtail, Giant ([11]; 500 g ai/ha): 50; Plant response rating, Morningglory ([12]; 125 g ai/ha): 0; Plant response rating, Morningglory ([12]; 500 g ai/ha): 10; Plant response rating, Pigweed ([13]; 125 g ai/ha): 0; Plant response rating, Pigweed ([13]; 500 g ai/ha): 0; Plant response rating, Velvetleaf ([14]; 125 g ai/ha): 0; Plant response rating, Velvetleaf ([14]; 500 g ai/ha): 0; Plant response rating, Wheat ([15]; 125 g ai/ha): 0; Plant response rating, Wheat ([15]; 500 g ai/ha): 0; Plant response rating, Corn (corn (Zea mays) [16]; 125 g ai/ha): 0; Plant response rating, Corn (corn (Zea mays) [16]; 500 g ai/ha): 0; Plant response rating, Rice (rice (Oryza sativa); 62 g ai/ha): 0; Plant response rating, Rice (rice (Oryza sativa); 250 g ai/ha): 0; Plant response rating, Sedge, Umbrella ([17]; 62 g ai/ha): 0; Plant response rating, Sedge, Umbrella ([17]; 250 g ai/ha): 0; Plant response rating, Ducksalad ([18]; 62 g ai/ha): 0; Plant response rating, Ducksalad ([18]; 250 g ai/ha): 0; Plant response rating, Barnyardgrass ([19]; 62 g ai/ha, scale 0 to 100): 0; Plant response rating, Barnyardgrass [19, 20]: 0
